Test results from ChEMBL document CHEMBL1212831, “Discovery of N-[(2S)-5-(6-fluoro-3-pyridinyl)-2,3-dihydro-1H-inden-2-yl]-2-propanesulfonamide, a novel clinical AMPA receptor positive modulator” (J Med Chem, 2010).
Values after ≈ are worked out from the molar mass of the structure shown. Active and inactive are the calls of the source. No cut-off for these calls is given here.

Key:
[1] = system: Rattus norvegicus; experiment: Liver blood flow in Sprague-Dawley rat at 1 mg/kg, iv and 3 mg/kg, po; type: ADME, organism-based; details: in vivo
[2] = Half life in Sprague-Dawley rat at 1 mg/kg, iv; type: ADME, organism-based; design: dose 1 mg/kg, route intravenous; details: in vivo
[3] = Half life in Sprague-Dawley rat at 3 mg/kg, po; type: ADME, organism-based; design: dose 3 mg/kg, route oral; details: in vivo
[4] = Volume of distribution at steady state in Beagle dog at 0.125 mg/kg, iv and 0.5 mg/kg, po; type: ADME, organism-based, Canis lupus familiaris; details: in vivo, read-out: Vdss
[5] = Half life in Beagle dog at 0.125 mg/kg, iv; type: ADME, organism-based, Canis lupus familiaris; design: dose 0.125 mg/kg, route intravenous; details: in vivo
[6] = Tmax in Beagle dog at 0.5 mg/kg, po; type: ADME, organism-based, Canis lupus familiaris; design: dose 0.5 mg/kg, route oral; details: in vivo
[7] = Volume of distribution at steady state in cynomolgus monkey at 0.125 mg/kg, iv and 0.5 mg/kg, po; type: ADME, organism-based, Macaca fascicularis; details: in vivo, read-out: Vdss
[8] = Cmax in cynomolgus monkey at 0.5 mg/kg, po; type: ADME, organism-based, Macaca fascicularis; design: dose 0.5 mg/kg, route oral; details: in vivo
[9] = Tmax in cynomolgus monkey at 0.5 mg/kg, po; type: ADME, organism-based, Macaca fascicularis; design: dose 0.5 mg/kg, route oral; details: in vivo
[10] = Equilibrium solubility of the compound in fasted simulated intestinal fluid at pH 2 to 10; type: physicochemical
[11] = Apparent half life in human; type: ADME, organism-based; details: in vivo, read-out: beta t1/2 (converted)
[12] = system: Homo sapiens; experiment: Toxicity in human at 0.25 to 6 mg/kg administered as single dose; type: organism-based; design: dose 0.25-6 mg/kg; details: in vivo
[13] = system: Homo sapiens; experiment: Toxicity in human at 0.1 mg/kg QD for 28 days; type: organism-based; design: dose 0.1 mg/kg; details: in vivo, 672 h
[14] = Plasma protein binding in rat at 1 ug/ml after 6 hrs by equilibrium dialysis method; type: ADME, cell-free; details: read-out: PPB (converted)
[15] = target: T1, Glutamate receptor 2 (Homo sapiens, UniProt P42262); experiment: Activation of human recombinant GluR2 flip isoform expressed in HEK293 cells assessed as increase of glutamate-induced inward current by whole cell voltage-clamp electrophysiology; type: cell-based
[16] = target: T1, Glutamate receptor 2; experiment: Activation of human recombinant GluR2 flip isoform expressed in HEK293 cells assessed as increase of glutamate-induced inward current at 30 uM by whole cell voltage-clamp electrophysiology assay; type: cell-based
[17] = system: Blood; experiment: Drug level in po dosed Lister Hooded rat blood; type: ADME, organism-based; details: in vivo
[18] = system: Rattus norvegicus; experiment: Antiamnesic activity in po dosed assessed as inhibition of Scopolamine-induced amnesic deficit administered 3 hrs before Scopolamine challenge by step-down passive avoidance test; type: functional, organism-based; details: Wistar
[19] = system: Rattus norvegicus; experiment: Antiamnesic activity in po dosed assessed as inhibition of amnesic deficit by step-down passive avoidance test; type: functional, organism-based; details: Wistar
[20] = Oral bioavailability in Sprague-Dawley rat at 3 mg/kg; type: ADME, organism-based; details: in vivo
[21] = target: Cytochrome P450 2C9 (Homo sapiens, UniProt P11712)
Description: Inhibition of human CYP2C9 after 10 mins

[22] = target: Cytochrome P450 2D6 (Homo sapiens, UniProt P10635)
Description: Inhibition of human CYP2D6 after 10 mins

[23] = system: Liver microsomes

T1 sequence (P42262 whole entry, canonical isoform): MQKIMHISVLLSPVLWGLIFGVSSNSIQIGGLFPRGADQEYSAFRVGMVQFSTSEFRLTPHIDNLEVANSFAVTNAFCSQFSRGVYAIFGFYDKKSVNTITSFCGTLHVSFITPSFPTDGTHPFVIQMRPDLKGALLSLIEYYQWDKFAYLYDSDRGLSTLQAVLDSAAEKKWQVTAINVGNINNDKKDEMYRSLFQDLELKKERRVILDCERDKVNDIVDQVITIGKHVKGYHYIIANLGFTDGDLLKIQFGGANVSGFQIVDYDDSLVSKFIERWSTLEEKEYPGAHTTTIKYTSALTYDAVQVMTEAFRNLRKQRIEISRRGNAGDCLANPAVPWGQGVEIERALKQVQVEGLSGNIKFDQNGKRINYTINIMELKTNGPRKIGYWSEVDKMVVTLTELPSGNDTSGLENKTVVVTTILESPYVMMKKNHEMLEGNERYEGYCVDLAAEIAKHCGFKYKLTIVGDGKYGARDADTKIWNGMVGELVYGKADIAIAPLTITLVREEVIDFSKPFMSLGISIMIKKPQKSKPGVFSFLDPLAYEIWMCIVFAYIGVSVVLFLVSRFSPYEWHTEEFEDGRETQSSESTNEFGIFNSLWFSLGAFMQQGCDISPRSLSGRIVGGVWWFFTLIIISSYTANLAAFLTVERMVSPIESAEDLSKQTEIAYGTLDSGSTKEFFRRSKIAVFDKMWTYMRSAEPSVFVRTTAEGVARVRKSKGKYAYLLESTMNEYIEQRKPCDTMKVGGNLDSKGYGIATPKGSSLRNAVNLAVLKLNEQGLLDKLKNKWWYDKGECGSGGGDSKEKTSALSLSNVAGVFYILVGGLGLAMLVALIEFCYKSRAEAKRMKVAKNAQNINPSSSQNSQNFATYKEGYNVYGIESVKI
Chain of Cytochrome P450 2C9 (P11712 whole entry): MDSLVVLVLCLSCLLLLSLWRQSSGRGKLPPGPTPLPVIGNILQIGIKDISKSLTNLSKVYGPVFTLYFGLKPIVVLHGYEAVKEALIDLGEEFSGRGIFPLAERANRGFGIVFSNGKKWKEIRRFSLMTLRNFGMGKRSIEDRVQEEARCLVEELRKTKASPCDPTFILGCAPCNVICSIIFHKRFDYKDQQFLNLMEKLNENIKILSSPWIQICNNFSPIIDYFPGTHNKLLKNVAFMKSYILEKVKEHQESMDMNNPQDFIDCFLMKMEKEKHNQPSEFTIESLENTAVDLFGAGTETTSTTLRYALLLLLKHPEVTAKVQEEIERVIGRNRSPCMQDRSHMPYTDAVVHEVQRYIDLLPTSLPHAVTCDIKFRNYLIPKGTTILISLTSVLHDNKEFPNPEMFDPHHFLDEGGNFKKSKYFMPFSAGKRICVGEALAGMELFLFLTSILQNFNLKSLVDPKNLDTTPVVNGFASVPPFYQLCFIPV
Chain of Cytochrome P450 2D6 (P10635 whole entry): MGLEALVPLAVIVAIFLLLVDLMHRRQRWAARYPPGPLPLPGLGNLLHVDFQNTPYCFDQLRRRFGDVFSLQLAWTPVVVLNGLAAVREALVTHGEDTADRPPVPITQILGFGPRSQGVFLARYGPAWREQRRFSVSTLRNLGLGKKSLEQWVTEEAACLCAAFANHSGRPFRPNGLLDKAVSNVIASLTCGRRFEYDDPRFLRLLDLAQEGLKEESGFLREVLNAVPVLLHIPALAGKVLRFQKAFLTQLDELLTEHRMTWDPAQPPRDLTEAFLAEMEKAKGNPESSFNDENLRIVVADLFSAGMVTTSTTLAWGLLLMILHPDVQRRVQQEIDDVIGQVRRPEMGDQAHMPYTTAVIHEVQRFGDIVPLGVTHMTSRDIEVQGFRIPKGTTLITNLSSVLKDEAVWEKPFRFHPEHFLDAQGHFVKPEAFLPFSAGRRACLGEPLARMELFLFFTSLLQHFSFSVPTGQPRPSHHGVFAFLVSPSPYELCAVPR

LBF [1]: 6%
half-life [2]: 5 h
half-life [3]: 6.6 h
Vd [4]: 4.8 L/kg
half-life [5]: 16 h
Tmax [6]: 2 h
Vd [7]: 1.8 L/kg
Cmax [8]: 115 ng/mL
Tmax [9]: 6 h
solubility thermodynamic [10]: 100 µg/mL (≈ 299 µM)
half-life [11]: 107 h
fraction unbound at 6 h, 1 ug/ml [14]: 0.133
Activity [15]: Dose-dependent effect
Activity [16]: Active
Drug uptake [17]: 81 ng/mL
bioavailability [20]: 61%
IC50 [21]: > 10 µM
IC50 [22]: > 10 µM
IC50 [23]: 0.7 µM
SMILES: CC(C)S(=O)(=O)N[C@H]1Cc2ccc(-c3ccc(F)nc3)cc2C1 [GSK-729327]
Activity [12]: Non-toxic
Activity [13]: Non-toxic
Activity [18]: Dose-dependent effect
inhibition [19]: inactive
